Measurements taken from article PMC6331789, “Phytochemicals from Ruta graveolens Activate TAS2R Bitter Taste Receptors and TRP Channels Involved in Gustation and Nociception” (Molecules, 2015).

Test system: twenty TAS2R bitter taste receptors
Experiment: In vitro screening on the platform of twenty cloned TAS2R bitter taste receptors
Type: cell-based, human
Settings: at the tested concentration
Description: Pure phytochemicals were submitted to in vitro assays with a platform of twenty cloned receptors of the bitter taste TAS2R family and four receptors of the TRP family related to the perception of taste and somatosensory sensations. All experiments have been repeated three times, each time with four replicates. […] For simplicity, only those bitter taste receptors having reproducible positive assay, namely TASR10, 14 and 49, are reported (Table 1).
For the biological tests, several compounds were purchased as references from different suppliers (Sigma Aldrich, ChromaDex, Irvine, CA, USA, and Tocris Bioscience, Bristol, UK) and dissolved in assay buffer (130 mM NaCl, 5 mM KCl, 1 mM MgCl2, 2 mM CaCl2, 5 mM NaHCO3 and 20 mM HEPES, pH 7.4) or in a mixture of assay buffer and DMSO, never exceeding a final DMSO concentration of 0.5% (v/v) to avoid toxic effects and possible artefacts on transfected cells.
All human TAS2R and G15Gi1 cDNAs were produced as reported in Bassoli et al. cDNAs for human TRPA1-M5-M8-V1-V4 were cloned into a pcDNA6 expression vector (Invitrogen-Thermo Fisher, Waltham, MA, USA).
All experiments were performed using HEK293T cells (ATCC).
For the bitter platform experiments, cells were cultured, transfected and analyzed as previously described.
For the bitter platform experiments, data analyses were performed as previously described.
For the calculation of concentration-response curves, responses were calculated as the difference between maximal and minimal relative fluorescence unit (RFU) values in a selected time window (11–60 s) and were normalized to the basal well fluorescence (Time Point 1, before compound injection) in order to compensate for differences in cell density (∆F/F0). All of the experiments have been repeated three times, each time with four replicates. All of the results are averages of at least four replicates. Raw data are available in Supplementary Material, Figures S3–S6.

Row | Structure (SMILES) | Response on the twenty TAS2R receptors (in words)
1 | COc1cc2nc3occc3c(OC)c2cc1OC [Compound 7, kokusaginin] | did not respond
2 | CCCCCCCCCC(C)=O [Compound 9, 2-undecanone] | inactive
3 | C[C@@H]1O[C@@H](OC[C@H]2O[C@@H](Oc3c(-c4ccc(O)c(O)c4)oc4cc(O)cc(O)c4c3=O)[C@H](O)[C@@H](O)[C@@H]2O)[C@H](O)[C@H](O)[C@H]1O [Compound 1, rutin] | inactive
4 | CCCCCCCC(C)=O [Compound 10, 2-nonanone] | inactive
